# Reference: publication PMC12285266, “Function and regulation of pob genes for 4-hydroxybenzoate catabolism in Agrobacterium tumefaciens” (Applied and Environmental Microbiology, 2025)
# What was measured:
# [1] = molecular target: T1, PobA (Atu4544), GST-atu4544 (Agrobacterium fabrum, UniProt Q7CV80); assay: HPLC of substrate consumption and protocatechuate formation; type: biochemical; details: NADPH or NADH 0.4 mM, FAD 5 uM, 0.5 mM substrate, 50 mM Tris-Cl pH 7.4, 30 C; GST-tagged enzyme
# T1 construct: full ORF (1,173 bp) in pGEX-4T-1, N-terminal GST tag kept, E. coli BL21(DE3), about 70 kDa with tag
# [2] = molecular target: T2, PobR (Atu4545), HIS-atu4545 (Agrobacterium fabrum, UniProt Q7CV81); assay: EMSA, effect on PobR/DNA complex formation; type: binding; details: FAM-labelled atu4544-atu4545 intergenic DNA; varying concentrations; pH 8.0, 25 C
# T2 construct: full ORF (924 bp) in pET30a, N-terminal His tag kept, E. coli BL21(DE3)
# T2 sequence (Q7CV81 1-307): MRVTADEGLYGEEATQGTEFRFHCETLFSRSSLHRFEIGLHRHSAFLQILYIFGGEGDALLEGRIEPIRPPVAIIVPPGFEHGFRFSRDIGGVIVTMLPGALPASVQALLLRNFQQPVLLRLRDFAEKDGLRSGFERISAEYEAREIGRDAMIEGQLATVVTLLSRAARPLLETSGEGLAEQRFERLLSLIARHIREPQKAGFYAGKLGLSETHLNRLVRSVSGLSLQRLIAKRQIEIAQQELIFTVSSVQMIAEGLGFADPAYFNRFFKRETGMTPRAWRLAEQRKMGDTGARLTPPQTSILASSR
# [3] = molecular target: T3, PobR (HIS-atu4545) (Agrobacterium tumefaciens C58) (UniProt Q7CV81); assay: competition; details: EMSA: per 50 mL binding buffer 0.394 g Tris-base, 0.186 g KCl, 0.019 g EDTA-2Na, 10% glycerol, 0.008 g DTT (about 65 mM Tris, 50 mM KCl, 1 mM EDTA, 1 mM DTT) …
# T3 sequence: T2 sequence (Q7CV81 1-307)
# T1 sequence (Q7CV80 1-390): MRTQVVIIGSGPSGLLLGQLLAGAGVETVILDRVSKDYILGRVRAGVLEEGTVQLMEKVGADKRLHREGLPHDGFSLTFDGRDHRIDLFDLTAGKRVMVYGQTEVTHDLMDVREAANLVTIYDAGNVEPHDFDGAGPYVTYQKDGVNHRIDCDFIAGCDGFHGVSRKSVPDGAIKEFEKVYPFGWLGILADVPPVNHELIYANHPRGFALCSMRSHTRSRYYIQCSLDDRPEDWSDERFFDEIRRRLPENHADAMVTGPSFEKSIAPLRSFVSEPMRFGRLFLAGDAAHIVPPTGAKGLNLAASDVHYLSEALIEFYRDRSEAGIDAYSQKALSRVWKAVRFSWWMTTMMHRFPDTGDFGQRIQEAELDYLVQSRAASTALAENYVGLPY
compound,measurement,setting,value
O=C(O)c1ccc(O)cc1 [4-hydroxybenzoate],HPLC of substrate consumption and protocatechuate formation,[1],Atu4544 (PobA) catalyzed the hydroxylation of 4-hydroxybenzoate to produce protocatechuate
O=C(O)CCCCC(=O)O [adipic acid],"EMSA, effect on PobR/DNA complex formation",[2],The increased adipic acid seemed to hinder the binding of the PobR/DNA probe
CATCGTGACGATCACTCCACCGATATCGCGTGAAAAGCGGAAGCCATGTTCGAAACCCGGTGGCACGATGATGGCGACCGGCGGGCGGATCGGCTCGATGCGGCCTTCCAGCAACGCATCGATCGTCGACCTGCAGGCA (double strand) [unrelated DNA (pobR-inter)],binding,[3],no binding
CATCTCACCATCACTCCTCCGTGCGATGGTCGGATTGTGCAATTTACAGACAGAAAAGTCCATTGAGCTTGTGGCCGGTCTTGGTCAATTTCTTGACCGGAGACAAGTTCGGGAGGACATCATCGTCGACCTGCAGGCA (double strand) [unlabeled intergenic competitor],binding,[3],binds
